According to patent US11573241B2, “Total cellular iron as a marker of cancer stem cells and uses thereof” (Institut National de la Sante et de la Recherche Medicale …, priority 2016, dated 2023):
Entries after “also recorded” stand apart in the source; their conditions may differ.

How the values were obtained:
[1] = test system: patient-derived xenografts (PDX 1 and 2); format: in vivo, NOD/SCID mice; conditions: intra-peritoneal; for ratio of residual ALDH+ cells / tumor growth: 4 weeks
Excerpt: Patient derived xenografts (PDXs). PDXs were established as previously described in Charafe-Jauffret et al., Cancer Res. 73, 7290-7300 (2013) from tissue samples collected prospectively at the Institut Paoli-Calmettes (IPC). Samples of human origin and associated data were obtained from the IPC/CRCM Tumor Bank that operates under authorization #AC-2007-33 granted by the French Ministry of Higher Education and Research. Before scientific use of samples and data, patients were appropriately informed and asked to consent in writing, in compliance with French and European regulations. The project was approved by the IPC Institutional Review Board. Cells from 2 different patient-derived xenografts (PDX 1 and 2) were transplanted orthotopically into fat pads of 4-week-old female non-obese diabetic/severe combined immunodeficient (NOD/SCID) mice (NOD.CB17-Prkdcscid/J, Charles River France) after mechanical treatment and enzymatic digestion using collagenase/hyaluronidase (StemCell Technologies) to generate single-cell suspension suitable for implantation in vivo. PDXs were primarily established as previously described in Caraft-Jauffret et al., and evaluated for ALDEFLUOR-positive CSCs. We injected single cancer cells into fat pads of NOD/SCID mice and monitored tumor growth. When tumor size reached approximately 150 mm^3, Sal and AM5 treatments were performed as indicated above for FIGS. 14 and 15. Tumor growth was compared with that of docetaxel and placebo-treated controls. After 4 weeks of treatment, the animals were sacrificed and the proportion of ALDEFLUOR-positive CSCs was measured in each residual tumor. All animal studies were approved by the French Ministry of Higher Education and Research (authorization number D130554) and ethical committee (number 14), of Aix-Marseille Université. No randomization was used and experimenters were blinded to drug treatments and tissue analyses.
Aldefluor assay. The analysis was processed on single-cell suspension from the PDXs obtained as described above. The ALDEFLUOR Kit (Stemcell™ Technologies) was used to isolate the population with high aldehyde dehydrogenase enzymatic activity using an LSR2 cytometer (Becton Dickinson Biosciences), as previously described in Charafe-Jauffret et al. To eliminate cells of mouse origin from the PDXs, we used staining with an anti-H2Kd antibody (BD Biosciences, 1:200, 20 min on ice) followed by staining with a secondary antibody labeled with phycoerythrin (PE; Jackson Laboratories, 1:250, 20 min on ice).

MCF-7 tumors = assay: Perl's reaction, iron(III) in MCF-7 xenograft tumor tissue; format: in vivo, mice; conditions: 3 mg/kg body weight/day, intraperitoneal
Method: Xenograft tumor formation experiments. MCF-7 cell cultures were collected, enzymatically dissociated, washed with PBS, and re-suspended in a PBS/Matrigel mixture (1:1 v/v). The mixture (0.1 mL) was then implanted in the mammary fat pad of 5-week-old female AthymicNude-Fox1nu mice bilaterally (Harlan, France). Mice were maintained in individually-ventilated cages (Tecniplast, France) under constant temperature and humidity. All experiments were performed under laminar flow (Tecniplast France). Mice received estradiol supplementation (0.4 mg/kg) the same day and 7 days from cell injection, and were observed and palpated for tumor appearance. Mice were treated with AM5 (3 mg/kg body weight/day) by means of intraperitoneal injections every 5 opened days of the week. Tumor growth was measured weekly using calipers. Tumor volume was determined using the standard formula: L×W^2×0.52, where L and W are the longest and shortest diameters, respectively. All animal studies were approved by the Direction des services Vétérinaires, Prefecture de Police, Paris, France (authorization number A75-14-08) and the ethical committee (number 34) of Paris Descartes University. No randomization was used and experimenters were blinded to drug treatments and tissue analyses.
Perl's reaction. Tumors from mice were removed at time of sacrifice. Tumors were fixed with 4% PFA and embedded in paraffin. […]

Zr75.1 = assay: Sensibility to AM5; format: cell-based, human; conditions: Zr75.1, H+
Method: (§1) Cell viability assay. Cell viability assay was carried out by plating 1000 cells/well in 96-well plates. Cells were treated as indicated for 72 h. CellTiter-Blue® Reagent (G8081, Promega) was added after 72 h treatment and cells were incubated for 1 h before recording fluorescence intensities (Excitation, 560/20 nm; Emission, 590/10 nm) using a Perkin Elmer Wallac 1420 Victor2 Microplate Reader.

MCF-7 = assay: Sensibility to AM5; format: cell-based, human; conditions: MCF-7, H+
Method: as §1

MDA-MD-157 = assay: Sensibility to AM5; format: cell-based, human; conditions: MDA-MD-157, CSTN
Method: as §1

T47D = assay: Sensibility to AM5; format: cell-based, human; conditions: H+
Method: as §1

HBL100 = assay: Sensibility to AM5; format: cell-based, human; conditions: HBL100, Non-tumoral
Method: as §1

BT474 = assay: Sensibility to AM5; format: cell-based, human
Method: as §1

MDA-MB-231 = assay: Sensibility to AM5; format: cell-based, human; conditions: MDA-MB-231, CSTN
Method: as §1

MDA-MB-134 = assay: Sensibility to AM5; format: cell-based, human
Method: as §1

MDA-MB-361 = assay: Sensibility to AM5; format: cell-based, human
Method: as §1

BT549 = assay: Sensibility to AM5; format: cell-based, human; conditions: BT549, CSTN
Method: as §1

HMLER CD24^high = assay: Sensibility to AM5; format: cell-based, human
Method: as §1

[2] = test system: ALDH+ iCSCL-10A2 cell subpopulation; assay: Flow cytometry of ALDH+ CSC subpopulation in vitro; format: cell-based; conditions: 0.5 μM, 48 h
Method: FIG. 13. Sal and AM5 effect on an ALDH+CSC cell population in vitro. Flow cytometry measurement of the effect of 0.5 μM Sal and AM5 against ALDH+ iCSCL-10A2 cell subpopulation after treated for 48 h. DEAB is the diethylaminobenzaldehyde ALDH inhibitor.

Structure (SMILES)	toxicity at effective doses [1]	ratio of residual ALDH+ cells [1]	tumor growth [1]	iron(III) in tumor tissue (MCF-7 tumors)	Sensibility to AM5 (Zr75.1)	Sensibility to AM5 (MCF-7)	Sensibility to AM5 (MDA-MD-157)	Sensibility to AM5 (T47D)	Sensibility to AM5 (HBL100)	Sensibility to AM5 (BT474)	Sensibility to AM5 (MDA-MB-231)	Sensibility to AM5 (MDA-MB-134)	Sensibility to AM5 (MDA-MB-361)	Sensibility to AM5 (BT549)	Sensibility to AM5 (HMLER CD24^high)	effect against ALDH+ subpopulation [2]
CC[C@@H](C(=O)[C@@H](C)[C@@H](O)[C@H](C)[C@@H]1O[C@@H]([C@@H](CC)C(=O)O)CC[C@@H]1C)[C@H]1O[C@]2(C=C[C@@H](O)[C@]3(CC[C@@](C)([C@H]4CC[C@](O)(CC)[C@H](C)O4)O3)O2)[C@H](C)C[C@@H]1C [Sal, salinomycin, reference compound]	without detectable toxicity	reduced ratio of ALDH+ cells	reduce tumor growth	–	–	–	–	–	–	–	–	–	–	–	–	–
C#CCN[C@@H]1C=C[C@]2(O[C@H]([C@@H](CC)C(=O)[C@@H](C)[C@@H](O)[C@H](C)C3O[C@@H](C(CC)C(=O)O)CC[C@@H]3C)[C@@H](C)C[C@H]2C)O[C@@]12CC[C@@](C)([C@H]1CC[C@](O)(CC)[C@H](C)O1)O2 (stereo partly shown) [AM5, Sal-Propargylamine]	without detectable toxicity	reduced ratio of ALDH+ cells	reduce tumor growth	accumulation of iron(III)	First	First	Second	Resistant	First	Second	Second	Second	Second	Resistant	First	selectively targeted the ALDH+ subpopulation; also recorded: more effectively than Sal
